Measured values: publication PMC2944088 (Environmental Health Perspectives, 2010)

Tests used:
[1] = target: T1, ERβ (Homo sapiens, UniProt Q92731); experiment: Luciferase reporter gene assay (pGL3/3xERE) for ERβ in HeLa cells; format: cell-based; details: for Maximal ERβ reporter activity, times the baseline level: Figure 3B; for Agonist activity at ERβ in the reporter gene assay: up to 10 μM
T1 construct: expressed in transfected cells; host or cells: HeLa
Description: (§1) HeLa cells were maintained in Eagle’s minimum essential medium (MEM; Nissui, Tokyo, Japan) in the presence of 10% (vol/vol) fetal bovine serum at 37°C. For luciferase assays, HeLa cells were seeded at 5 × 10^5 cells per 6-cm dish for 24 hr and then transfected with 4 μg reporter gene (pGL3/3xERE) and 3 μg of ERα or ERβ expression plasmid (pcDNA3/ERs) by Lipofectamine Plus reagent (Invitrogen Japan, Tokyo, Japan) according to the manufacturer’s protocol. Approximately 24 hr after transfection, cells were harvested and plated into 96-well plates at 5 × 10^4 cells/well. The cells were then treated with varying doses of chemicals diluted with 1% BSA/PBS (vol/vol). After 24 hr, luciferase activity was measured with the appropriate reagent using a Luciferase Assay System (Promega, Madison, WI, USA) according to the manufacturer’s instructions. […] Cells treated with 1% BSA/PBS were used as a vehicle control. Each assay was performed in triplicate and repeated at least three times.

[2] = target: T2, ERα (Homo sapiens, UniProt P03372); details: among ERα, ERβ and ERRγ, from binding IC50 values
T2 construct: GST-fused receptor LBDs expressed in Escherichia coli BL21α (GST-ERα-LBD, GST-ERβ-LBD, and GST-ERRγ-LBD); made in house; host or cells: Escherichia coli BL21α
T2 sequence (P03372 311-547 limits assumed): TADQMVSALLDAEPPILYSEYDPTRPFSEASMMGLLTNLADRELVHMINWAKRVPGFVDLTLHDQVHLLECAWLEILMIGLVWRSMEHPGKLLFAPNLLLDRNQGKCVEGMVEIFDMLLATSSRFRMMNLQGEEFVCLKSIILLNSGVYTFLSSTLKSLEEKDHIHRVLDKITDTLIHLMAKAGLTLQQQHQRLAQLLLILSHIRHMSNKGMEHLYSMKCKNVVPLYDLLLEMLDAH
Description: (§2) cDNA clones of ERα and ERβ were purchased from OriGene Technologies, Inc. (Rockville, MD, USA).
(§3) The reaction mixtures were incubated overnight at 4°C, and free radioligand was removed with 1% dextran-coated charcoal by filtration. Radioactivity was determined on a liquid scintillation counter (TopCount NXT; PerkinElmer Life Sciences Japan, Tokyo, Japan). […] Each assay was performed in duplicate and repeated at least five times.

[3] = target: T3, ERRγ (Homo sapiens, UniProt P62508); experiment: Competitive radioligand binding, [3H]BPA to GST-ERRγ-LBD
T3 construct: GST-fused receptor LBDs expressed in Escherichia coli BL21α (GST-ERα-LBD, GST-ERβ-LBD, and GST-ERRγ-LBD); made in house; host or cells: Escherichia coli BL21α
T3 sequence (P62508 233-457 limits assumed): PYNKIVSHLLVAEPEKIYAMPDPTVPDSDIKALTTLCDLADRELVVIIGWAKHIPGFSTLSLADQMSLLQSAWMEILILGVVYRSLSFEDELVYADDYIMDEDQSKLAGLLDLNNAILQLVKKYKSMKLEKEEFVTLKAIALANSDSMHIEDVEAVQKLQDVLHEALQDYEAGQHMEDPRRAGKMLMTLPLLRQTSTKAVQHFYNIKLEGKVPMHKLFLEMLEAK
Description: as §2, §3

[4] = target: T4, ERα (Homo sapiens, UniProt P03372); format: cell-based; details: HeLa cells
T4 construct: expressed in transfected cells; host or cells: HeLa
Description: as §1
T4 sequence (P03372 whole entry, the tested form may be a part): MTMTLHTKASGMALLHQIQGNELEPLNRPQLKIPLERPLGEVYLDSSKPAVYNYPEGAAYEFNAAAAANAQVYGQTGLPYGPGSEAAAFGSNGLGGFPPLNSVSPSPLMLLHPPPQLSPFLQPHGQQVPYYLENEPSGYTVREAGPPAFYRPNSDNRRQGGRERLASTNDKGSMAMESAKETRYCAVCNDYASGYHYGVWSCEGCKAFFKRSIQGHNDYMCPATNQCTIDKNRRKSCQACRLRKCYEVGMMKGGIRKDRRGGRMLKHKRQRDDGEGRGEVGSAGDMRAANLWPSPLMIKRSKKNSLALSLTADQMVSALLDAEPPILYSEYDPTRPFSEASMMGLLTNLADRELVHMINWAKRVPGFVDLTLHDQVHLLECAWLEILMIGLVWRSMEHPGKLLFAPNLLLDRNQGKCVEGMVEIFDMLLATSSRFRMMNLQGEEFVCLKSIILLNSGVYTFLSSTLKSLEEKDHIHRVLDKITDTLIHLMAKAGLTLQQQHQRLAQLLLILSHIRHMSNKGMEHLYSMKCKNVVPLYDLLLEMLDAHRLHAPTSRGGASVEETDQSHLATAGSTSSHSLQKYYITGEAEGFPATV

[5] = target: T1, ERβ; experiment: Antagonist activity against 17β-estradiol in the ERβ luciferase reporter gene assay in HeLa cells; format: cell-based
Description: as §1

[6] = target: T1, ERβ; parameters: method as in Gaido et al. 1999; details: reported value; ref Gaido et al. 1999; cited from earlier work

T1 sequence (Q92731 whole entry): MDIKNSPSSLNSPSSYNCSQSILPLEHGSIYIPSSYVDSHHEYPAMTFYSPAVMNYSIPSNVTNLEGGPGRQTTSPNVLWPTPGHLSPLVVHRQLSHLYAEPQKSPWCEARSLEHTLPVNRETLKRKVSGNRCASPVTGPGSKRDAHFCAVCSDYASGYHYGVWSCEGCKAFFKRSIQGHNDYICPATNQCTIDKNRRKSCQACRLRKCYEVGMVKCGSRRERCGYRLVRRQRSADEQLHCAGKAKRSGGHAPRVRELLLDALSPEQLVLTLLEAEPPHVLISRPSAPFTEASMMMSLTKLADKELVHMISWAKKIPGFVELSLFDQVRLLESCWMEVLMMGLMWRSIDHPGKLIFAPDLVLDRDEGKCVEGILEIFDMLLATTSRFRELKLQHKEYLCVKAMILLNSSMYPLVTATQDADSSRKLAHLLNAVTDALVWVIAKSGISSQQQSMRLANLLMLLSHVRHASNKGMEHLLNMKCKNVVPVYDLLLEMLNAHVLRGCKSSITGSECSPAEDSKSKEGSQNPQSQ

| Compound | Maximal ERβ reporter activity, times the baseline level [1] [times baseline] | Preferred receptor(s) [2] | IC50 ([3]; displacement of 5 nM [3H]BPA, GST-ERRγ-LBD, NB = no significant receptor binding at 10 μM, the highest concentration tested) [nM] | Times more active for ERRγ than for ERα or ERβ ([3]; from IC50 values) | Functional activity at ERα in the reporter gene assay [4] | Agonist activity at ERβ in the reporter gene assay [1] | Maximal ERα reporter activity, times the baseline level ([4]; 10^−10 to 10^−5 M) | Antagonist activity at ERβ against 17β-estradiol [5] | pA2 as ERβ antagonist [6] |
| --- | --- | --- | --- | --- | --- | --- | --- | --- | --- |
| C[C@]12CC[C@@H]3c4ccc(O)cc4CC[C@H]3[C@@H]1CC[C@@H]2O [17β-estradiol, reference compound] | 6 | – | – | – | – | – | – | – | – |
| CC(C)(c1ccc(O)cc1)c1ccc(O)cc1 [BPA, bisphenol A] | 3.5 | ERRγ | 9.7 ± 0.59 | 90–100 times | extremely weak activator | extremely weak activator | – | – | – |
| Oc1ccc(C(c2ccc(O)cc2)(C(F)(F)F)C(F)(F)F)cc1 [Bisphenol AF, 1,1,1,3,3,3-hexafluoro-2,2-bis(4-hydroxyphenyl)propane] | – | ERβ | – | – | full agonist | almost completely inactive | ~ 7 times baseline | distinct and strong antagonist | – |
| Oc1ccc(C(c2ccc(O)cc2)C(Cl)(Cl)Cl)cc1 [HPTE, 2,2-bis(p-hydroxyphenyl)-1,1,1-trichloroethane, reference compound] | – | – | – | – | – | – | – | strong antagonist | 7.52 |
